From patent US20230346961A1, “GLP-1 AND GIP RECEPTOR CO-AGONISTS” (Novo Nordisk A/S, priority 2020, published 2023)
Starred links: 1 amine or outer side, 2 acyl side, 3 side chain; linkers in the order of their positions; H or OH if unused. Non-standard residues stand in square brackets, D forms with d. Residues, ends and D or L forms follow the SMILES beside them. Groups on a side chain read outwards from the residue. *: point of attachment. C20 diacid = O=C(O)CCCCCCCCCCCCCCCCCCC(=O)*; γGlu = O=C(O)[C@H](CCC(=O)[*:2])N[*:1]; εLys = N[C@@H](CCCCN[*:1])C(=O)[*:2]; Trx = NC[C@H]1CC[C@H](C(=O)O)CC1; AEEA = NCCOCCOCC(=O)O; Aib = CC(C)(N)C(=O)O

Assays:
human GLP-1 receptor = human GLP-1 receptor (Homo sapiens, UniProt P43220); assay: cell-based; conditions: hGLP-1R
mouse GIP receptor = target: T1, mouse GIP receptor (Mus musculus, UniProt Q0P543); assay: cell-based
T1 sequence (Q0P543 19-460): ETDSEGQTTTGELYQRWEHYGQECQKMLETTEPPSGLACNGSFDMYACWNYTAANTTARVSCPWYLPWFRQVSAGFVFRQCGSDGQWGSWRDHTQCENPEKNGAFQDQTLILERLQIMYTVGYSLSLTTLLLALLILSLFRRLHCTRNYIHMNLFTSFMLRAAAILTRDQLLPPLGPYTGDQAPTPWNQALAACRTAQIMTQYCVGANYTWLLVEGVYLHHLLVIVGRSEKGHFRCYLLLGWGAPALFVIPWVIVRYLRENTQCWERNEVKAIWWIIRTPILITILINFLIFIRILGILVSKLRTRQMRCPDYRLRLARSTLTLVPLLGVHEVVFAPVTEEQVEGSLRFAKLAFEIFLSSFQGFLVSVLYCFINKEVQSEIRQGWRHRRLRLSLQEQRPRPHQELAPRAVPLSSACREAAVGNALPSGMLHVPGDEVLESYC

human glucagon receptor = human glucagon receptor (Homo sapiens, UniProt P47871); assay: cell-based
Experimental: The in vitro functional potency is the measure of target receptor activation in a whole cell assay.
In vitro functional potency was determined by measuring the response of the target receptor in a reporter gene assay in individual cell lines. […] When the respective receptor is activated, it results in the production of cAMP, which in turn results in expression of the luciferase protein. When assay incubation is completed, luciferase substrate (luciferin) is added resulting in the enzymatic conversion of luciferin to oxyluciferin and producing bioluminescence. The luminescence is measured as the readout for the assay.
The cells lines used in these assays were BHK cells with BHKTS13 as a parent cell line. The cell lines were derived from a clone containing the CRE luciferase element and were established by further transfection with the respective receptor to obtain the relevant cell line.
The cells were cultured at 37° C. with 5% CO2 in Cell Culture Medium. They were aliquoted and stored in liquid nitrogen. The cells were kept in continuous culture and were seeded out the day before each assay.
GLP-1R and GcgR Cell Culture Medium consisted of DMEM medium with 10% FBS, 500 μg/mL G418, and 300 μg/mL hygromycin. GIPR Cell Culture Medium consisted of DMEM medium with 10% FBS, 400 μg/mL G418, and 300 μg/mL hygromycin. Assay Buffer consisted of DMEM w/o phenol red, 10 mM Hepes, 1×Glutamax, 1% ovalbumin, and 0.1% Pluronic F-68 with the addition of HSA at twice the final assay concentration.
• 1) Cells were plated at 5000 cells/well and incubated overnight in the assay plate. • 2) Cells were washed once in DPBS. • 3) Stocks of the test compounds and reference compounds in concentrations ranging from 100-300 μM were diluted 1:150 in Assay Buffer. Compounds were then diluted 1:10 in column 1 of a 96 deep well dilution plate and then carried across the row creating a 3.5 fold, 12 point dilution curve. • 4) Assay Buffer (50 μl aliquot) with or without HSA was added to each well in the assay plate. • 5) A 50 μl aliquot of compound or blank was transferred from the dilution plate to the assay plate containing the Assay Buffer with or without HSA. • 6) The assay plate was incubated for 3 h in a 5% CO2 incubator at 37° C. 7) The cells were washed once with DPBS. • 8) A 100 μl aliquot of DPBS was added to each well of the assay plate. • 9) A 100 μl aliquot of steadylite plus reagent (light sensitive) was added to each well of the assay plate. • 10) Each assay plate was covered with aluminum foil to protect it from light and shaken at 250 RPM for 30 min at room temperature. • 11) Each assay plate was read in a microtiter plate reader.
The data from the microtiter plate reader was first regressed in an Excel in order to calculate the x-axis, log scale concentrations based on the individual test compound's stock concentration and the dilutions of the assay. […] The software performs a non-linear regression (log(agonist) vs response). A minimum of two replicates was measured for each sample. The reported values are averages of the replicates.

mouse GLP-1 receptor = target: T2, mouse GLP-1 receptor (Mus musculus, UniProt O35659)
T2 sequence (O35659 22-463): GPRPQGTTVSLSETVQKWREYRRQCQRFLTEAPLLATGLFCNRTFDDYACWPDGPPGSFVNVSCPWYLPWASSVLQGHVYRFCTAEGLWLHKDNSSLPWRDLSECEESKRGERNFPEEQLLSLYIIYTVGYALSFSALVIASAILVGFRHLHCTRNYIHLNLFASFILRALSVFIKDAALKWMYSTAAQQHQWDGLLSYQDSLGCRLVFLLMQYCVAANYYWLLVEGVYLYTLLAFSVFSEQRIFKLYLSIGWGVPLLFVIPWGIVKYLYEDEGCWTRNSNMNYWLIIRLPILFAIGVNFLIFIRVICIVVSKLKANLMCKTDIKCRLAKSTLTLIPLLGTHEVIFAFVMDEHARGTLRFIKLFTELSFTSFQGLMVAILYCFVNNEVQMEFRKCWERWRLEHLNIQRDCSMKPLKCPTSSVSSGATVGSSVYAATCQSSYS

Chain of human glucagon receptor (P47871 26-477): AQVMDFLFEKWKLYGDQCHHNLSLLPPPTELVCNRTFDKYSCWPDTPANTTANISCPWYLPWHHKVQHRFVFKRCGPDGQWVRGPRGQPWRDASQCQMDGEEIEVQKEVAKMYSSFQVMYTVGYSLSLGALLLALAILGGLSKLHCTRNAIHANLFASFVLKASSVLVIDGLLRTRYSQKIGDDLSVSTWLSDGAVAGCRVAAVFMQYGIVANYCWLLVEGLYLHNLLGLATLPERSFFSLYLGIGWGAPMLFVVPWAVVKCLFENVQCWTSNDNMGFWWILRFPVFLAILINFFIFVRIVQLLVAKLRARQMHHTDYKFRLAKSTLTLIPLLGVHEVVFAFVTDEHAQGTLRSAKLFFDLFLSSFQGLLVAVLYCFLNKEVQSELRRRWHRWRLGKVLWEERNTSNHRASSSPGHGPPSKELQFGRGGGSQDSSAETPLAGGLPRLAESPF
Chain of human GLP-1 receptor (P43220 24-463): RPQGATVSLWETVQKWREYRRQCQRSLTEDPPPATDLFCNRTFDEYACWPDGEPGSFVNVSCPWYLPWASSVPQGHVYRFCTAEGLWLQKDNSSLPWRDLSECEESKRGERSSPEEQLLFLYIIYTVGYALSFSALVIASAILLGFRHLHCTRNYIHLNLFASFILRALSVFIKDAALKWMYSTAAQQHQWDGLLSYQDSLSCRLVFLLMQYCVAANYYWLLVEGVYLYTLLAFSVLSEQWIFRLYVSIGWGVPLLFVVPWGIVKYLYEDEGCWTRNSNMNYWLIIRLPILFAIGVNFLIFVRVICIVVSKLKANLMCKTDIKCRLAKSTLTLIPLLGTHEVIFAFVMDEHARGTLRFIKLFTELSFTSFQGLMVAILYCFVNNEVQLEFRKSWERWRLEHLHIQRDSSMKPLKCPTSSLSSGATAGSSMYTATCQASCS

Row | SMILES | EC50 (human GLP-1 receptor; CRE Luc 0% HSA EC50, 0% HSA) [pM] | EC50 (human GLP-1 receptor; CRE Luc 1% HSA EC50, 1% HSA) [pM] | EC50 (mouse GIP receptor) [pM] | EC50 (human glucagon receptor) [pM] | EC50 (mouse GLP-1 receptor) [pM]
1 | CC[C@H](C)[C@H](NC(=O)[C@H](CO)NC(=O)[C@H](Cc1ccc(O)cc1)NC(=O)[C@H](CC(=O)O)NC(=O)[C@H](CO)NC(=O)[C@@H](NC(=O)[C@H](Cc1ccccc1)NC(=O)[C@@H](NC(=O)CNC(=O)[C@H](CCC(=O)O)NC(=O)C(C)(C)NC(=O)[C@@H](N)Cc1ccc(O)cc1)[C@@H](C)O)[C@@H](C)O)C(=O)N[C@@H](Cc1ccc(O)cc1)C(=O)N[C@@H](CC(C)C)C(=O)N[C@@H](CC(=O)O)C(=O)N[C@@H](CCCCN)C(=O)N[C@@H](CCC(N)=O)C(=O)N[C@@H](C)C(=O)N[C@@H](C)C(=O)NC(C)(C)C(=O)N[C@@H](CCCCNC(=O)[C@@H](N)CCCCNC(=O)[C@@H](N)CCCCNC(=O)CC[C@H](NC(=O)CCCCCCCCCCCCCCCCCCC(=O)O)C(=O)O)C(=O)N[C@@H](Cc1ccccc1)C(=O)N[C@H](C(=O)N[C@@H](CC(N)=O)C(=O)N[C@@H](Cc1c[nH]c2ccccc12)C(=O)N[C@@H](CC(C)C)C(=O)N[C@@H](CC(C)C)C(=O)N[C@@H](C)C(=O)NCC(=O)NCC(=O)N1CCC[C@H]1C(=O)N[C@@H](CO)C(=O)N[C@@H](CO)C(=O)NCC(=O)N[C@@H](C)C(=O)N1CCC[C@H]1C(=O)N1CCC[C@H]1C(=O)N1CCC[C@H]1C(=O)N[C@@H](CO)C(N)=O)C(C)C [Compound 13] (H-Y[Aib]EGTFTSDYSIYLDKQAA[Aib]K([εLys-εLys-γGlu-C20 diacid])FVNWLLAGGPSSGAPPPS-NH2; N-terminus assumed) | 12.4 | 103 | 57 | > 10000 | 5.4
2 | CC[C@H](C)[C@H](NC(=O)[C@H](CO)NC(=O)[C@H](Cc1ccc(O)cc1)NC(=O)[C@H](CC(=O)O)NC(=O)[C@H](CO)NC(=O)[C@@H](NC(=O)[C@H](Cc1ccccc1)NC(=O)[C@@H](NC(=O)CNC(=O)[C@H](CCC(=O)O)NC(=O)C(C)(C)NC(=O)[C@@H](N)Cc1ccc(O)cc1)[C@@H](C)O)[C@@H](C)O)C(=O)N[C@@H](Cc1ccc(O)cc1)C(=O)N[C@@H](CC(C)C)C(=O)N[C@@H](CC(=O)O)C(=O)N[C@@H](CCCCN)C(=O)N[C@@H](CCC(N)=O)C(=O)N[C@@H](C)C(=O)N[C@@H](C)C(=O)NC(C)(C)C(=O)N[C@@H](CCCCNC(=O)[C@@H](N)CCCCNC(=O)[C@@H](N)CCCCNC(=O)CC[C@H](NC(=O)[C@H]1CC[C@H](CNC(=O)CCCCCCCCCCCCCCCCCCC(=O)O)CC1)C(=O)O)C(=O)N[C@@H](Cc1ccccc1)C(=O)N[C@H](C(=O)N[C@@H](CC(N)=O)C(=O)N[C@@H](Cc1c[nH]c2ccccc12)C(=O)N[C@@H](CC(C)C)C(=O)N[C@@H](CC(C)C)C(=O)N[C@@H](C)C(=O)NCC(=O)NCC(=O)N1CCC[C@H]1C(=O)N[C@@H](CO)C(=O)N[C@@H](CO)C(=O)NCC(=O)N[C@@H](C)C(=O)N1CCC[C@H]1C(=O)N1CCC[C@H]1C(=O)N1CCC[C@H]1C(=O)N[C@@H](CO)C(N)=O)C(C)C [Compound 14] (H-Y[Aib]EGTFTSDYSIYLDKQAA[Aib]K([εLys-εLys-γGlu-Trx-C20 diacid])FVNWLLAGGPSSGAPPPS-NH2; N-terminus assumed) | 11.4 | 377 | 18.6 | > 10000 | 6
3 | CC[C@H](C)[C@H](NC(=O)[C@H](CO)NC(=O)[C@H](Cc1ccc(O)cc1)NC(=O)[C@H](CC(=O)O)NC(=O)[C@H](CO)NC(=O)[C@@H](NC(=O)[C@H](Cc1ccccc1)NC(=O)[C@@H](NC(=O)CNC(=O)[C@H](CCC(=O)O)NC(=O)C(C)(C)NC(=O)[C@@H](N)Cc1ccc(O)cc1)[C@@H](C)O)[C@@H](C)O)C(=O)N[C@@H](Cc1ccc(O)cc1)C(=O)N[C@@H](CC(C)C)C(=O)N[C@@H](CCC(=O)O)C(=O)N[C@@H](CCCCN)C(=O)N[C@@H](CCC(N)=O)C(=O)N[C@@H](C)C(=O)N[C@@H](C)C(=O)NC(C)(C)C(=O)N[C@@H](CCCCNC(=O)[C@@H](N)CCCCNC(=O)[C@@H](N)CCCCNC(=O)CC[C@H](NC(=O)[C@H]1CC[C@H](CNC(=O)CCCCCCCCCCCCCCCCCCC(=O)O)CC1)C(=O)O)C(=O)N[C@@H](Cc1ccccc1)C(=O)N[C@H](C(=O)N[C@@H](CC(N)=O)C(=O)N[C@@H](Cc1c[nH]c2ccccc12)C(=O)N[C@@H](CC(C)C)C(=O)N[C@@H](CC(C)C)C(=O)N[C@@H](C)C(=O)NCC(=O)NCC(=O)N1CCC[C@H]1C(=O)N[C@@H](CO)C(=O)N[C@@H](CO)C(=O)NCC(=O)N[C@@H](C)C(=O)N1CCC[C@H]1C(=O)N1CCC[C@H]1C(=O)N1CCC[C@H]1C(=O)N[C@@H](CO)C(N)=O)C(C)C [Compound 16] (H-Y[Aib]EGTFTSDYSIYLEKQAA[Aib]K([εLys-εLys-γGlu-Trx-C20 diacid])FVNWLLAGGPSSGAPPPS-NH2; N-terminus assumed) | 6.1 | 202 | 16.9 | > 10000 | 3.5
4 | CC[C@H](C)[C@H](NC(=O)[C@H](CO)NC(=O)[C@H](Cc1ccc(O)cc1)NC(=O)[C@H](CC(=O)O)NC(=O)[C@H](CO)NC(=O)[C@@H](NC(=O)[C@H](Cc1ccccc1)NC(=O)[C@@H](NC(=O)CNC(=O)[C@H](CCC(=O)O)NC(=O)C(C)(C)NC(=O)[C@@H](N)Cc1ccc(O)cc1)[C@@H](C)O)[C@@H](C)O)C(=O)N[C@@H](Cc1ccc(O)cc1)C(=O)N[C@@H](CC(C)C)C(=O)N[C@@H](CCC(=O)O)C(=O)N[C@@H](CCCCN)C(=O)N[C@@H](CCC(N)=O)C(=O)N[C@@H](C)C(=O)N[C@@H](C)C(=O)NC(C)(C)C(=O)N[C@@H](CCCCNC(=O)COCCOCCNC(=O)COCCOCCNC(=O)CC[C@H](NC(=O)[C@H]1CC[C@H](CNC(=O)CCCCCCCCCCCCCCCCCCC(=O)O)CC1)C(=O)O)C(=O)N[C@@H](Cc1ccccc1)C(=O)N[C@H](C(=O)N[C@@H](CC(N)=O)C(=O)N[C@@H](Cc1c[nH]c2ccccc12)C(=O)N[C@@H](CC(C)C)C(=O)N[C@@H](CC(C)C)C(=O)N[C@@H](C)C(=O)NCC(=O)NCC(=O)N1CCC[C@H]1C(=O)N[C@@H](CO)C(=O)N[C@@H](CO)C(=O)NCC(=O)N[C@@H](C)C(=O)N1CCC[C@H]1C(=O)N1CCC[C@H]1C(=O)N1CCC[C@H]1C(=O)N[C@@H](CO)C(N)=O)C(C)C [Compound 17] (H-Y[Aib]EGTFTSDYSIYLEKQAA[Aib]K([AEEA-AEEA-γGlu-Trx-C20 diacid])FVNWLLAGGPSSGAPPPS-NH2; N-terminus assumed) | 4.1 | 229 | 21.9 | > 10000 | 2.3
5 | CC[C@H](C)[C@H](NC(=O)[C@H](CO)NC(=O)[C@H](Cc1ccc(O)cc1)NC(=O)[C@H](CC(=O)O)NC(=O)[C@H](CO)NC(=O)[C@@H](NC(=O)[C@H](Cc1ccccc1)NC(=O)[C@@H](NC(=O)CNC(=O)[C@H](CCC(=O)O)NC(=O)C(C)(C)NC(=O)[C@@H](N)Cc1ccc(O)cc1)[C@@H](C)O)[C@@H](C)O)C(=O)N[C@@H](Cc1ccc(O)cc1)C(=O)N[C@@H](CC(C)C)C(=O)N[C@@H](CCC(=O)O)C(=O)N[C@@H](CCCCN)C(=O)N[C@@H](CCCCNC(=O)[C@@H](N)CCCCNC(=O)[C@@H](N)CCCCNC(=O)CC[C@H](NC(=O)[C@H]1CC[C@H](CNC(=O)CCCCCCCCCCCCCCCCCCC(=O)O)CC1)C(=O)O)C(=O)N[C@@H](C)C(=O)N[C@@H](C)C(=O)NC(C)(C)C(=O)N[C@@H](CCC(=O)O)C(=O)N[C@@H](Cc1ccccc1)C(=O)N[C@H](C(=O)N[C@@H](CCC(N)=O)C(=O)N[C@@H](Cc1c[nH]c2ccccc12)C(=O)N[C@@H](CC(C)C)C(=O)N[C@@H](CC(C)C)C(=O)N[C@@H](CCC(=O)O)C(=O)NCC(=O)NCC(=O)N1CCC[C@H]1C(=O)N[C@@H](CO)C(=O)N[C@@H](CO)C(=O)NCC(=O)N[C@@H](C)C(=O)N1CCC[C@H]1C(=O)N1CCC[C@H]1C(=O)N1CCC[C@H]1C(=O)N[C@@H](CO)C(N)=O)C(C)C [Compound 34] (H-Y[Aib]EGTFTSDYSIYLEKK([εLys-εLys-γGlu-Trx-C20 diacid])AA[Aib]EFVQWLLEGGPSSGAPPPS-NH2; N-terminus assumed) | 3.2 | 379 | 19.5 |  | 1.8
